Laboratory results from ChEMBL document CHEMBL3352324, “Progress in the discovery and development of heat shock protein 90 (Hsp90) inhibitors” (J Med Chem, 2014).
pIC50: −log10 of the molar value. Values belong to the molecule of their own block, whether it stands above or below them.

Key:
[1] = Drug metabolism in human liver microsomes; format: ADME; conditions: read-out: Drug metabolism
[2] = Antiproliferative activity against human colon cancer cells; format: functional, cell-based; conditions: Cancer cell lines
Heat shock protein HSP90 = Heat shock protein HSP90 (Homo sapiens, UniProt P07900+P08238); assay: Inhibition of HSP90 (unknown origin); format: protein assay
MCF7 = assay: Antiproliferative activity against human MCF7 cells; format: functional, cell-based
[3] = Cytotoxicity against human ARPE19 cells; format: cell-based; conditions: ARPE-19
HUVEC = assay: Cytotoxicity against HUVEC; format: cell-based; conditions: Homo sapiens
Homo sapiens = assay: Toxicity in patient assessed as median survival time at 450 mg/m'2, iv administered per week; format: organism-based; conditions: in vivo

- metabolised [1]: 90%
SMILES: O=C1CCCC/C=C/CCOC(=O)c2c(O)cc(O)c(Cl)c2C1
- pIC50 [2]: 5.12

- metabolised [1]: 47%
- IC50 (Heat shock protein HSP90): 0.2 µM
SMILES: O=C1NCC/C=C/CCCC(C(=O)NCc2ccccc2)C(=O)Cc2c(Cl)c(O)cc(O)c21 (stereo unspecified)
- pIC50 [2]: 6.22

SMILES: CC(=O)Oc1ccc(C(=O)O[C@@H]2Cc3c(O)cc(O)cc3O[C@@H]2c2ccccc2)cc1CC=C(C)C
- pIC50 (MCF7): 5.40

SMILES: CO[C@H]1/C=C\C=C(/C)C(=O)NC2=C(c3ccccc3)C(=O)C(NCCN(C)C)=C(C[C@@H](C)C[C@H](OC)[C@H](O)[C@@H](C)/C=C(\C)[C@@H]1OC(N)=O)C2=O (stereo in doubt)
- pIC50 [3]: > 5.30
- pIC50 (HUVEC): > 5.30

SMILES: O=C(O[C@@H]1Cc2c(O)cc(O)cc2O[C@@H]1c1cc(O)c(O)c(O)c1)c1cc(O)c(O)c(O)c1 [EPIGALOCATECHIN GALLATE]
- pIC50 (MCF7): 4.13

SMILES: C[C@@H]1C[C@H]2O[C@@H]2/C=C\C=C\C(=O)Cc2c(Cl)c(O)cc(O)c2C(=O)O1 [RADICICOL]
- metabolised [1]: 83%

SMILES: C=CCNC1=C2C[C@@H](C)C[C@H](OC)[C@H](O)[C@@H](C)/C=C(\C)[C@H](OC(N)=O)[C@@H](OC)/C=C\C=C(/C)C(=O)NC(=CC1=O)C2=O [TANESPIMYCIN]
- MST (Homo sapiens): 232 days
